Laboratory results published in ChEMBL document CHEMBL2439970 (Bioorg Med Chem Lett, 2013).

Experiments:
Assay type in all cases: ADME, organism-based
Rattus norvegicus = assay: Dose normalized AUC in Sprague-Dawley rat 2 mg/kg, po; set-up: dose 2 mg/kg, route oral; conditions: in vivo
[1] = Volume of distribution at steady state in Sprague-Dawley rat at 1 mg/kg, iv and 2 mg/kg, po; conditions: in vivo, read-out: Vdss
[2] = Oral bioavailability in Sprague-Dawley rat 2 mg/kg; conditions: in vivo
[3] = Half life in Sprague-Dawley rat at 1 mg/kg, iv and 2 mg/kg, po; conditions: in vivo
[4] = Clearance in Sprague-Dawley rat at 1 mg/kg, iv and 2 mg/kg, po; conditions: in vivo

O=C1OCCc2cc(CCN3CCN(C(=O)Cc4ccc(-n5cnnn5)cc4)CC3)ccc21
AUC/dose (Rattus norvegicus): 0.48 µM·kg·h/mg | Vd [1]: 1.3 L/kg | bioavailability [2]: 52% | half-life [3]: 30 min | clearance [4]: 43 mL/min/kg

O=C1OCc2cc(CCN3CCN(C(=O)Cc4ccc(-n5cnnn5)cc4)CC3)ccc21
AUC/dose (Rattus norvegicus): 0.34 µM·kg·h/mg | Vd [1]: 0.66 L/kg | bioavailability [2]: 33% | half-life [3]: 37.2 min | clearance [4]: 40 mL/min/kg
